From US8841452B1, “Process for recovery of nalmefene hydrochloride” (H. Lundbeck A/S, priority 2011, dated 2014)
Structures can show the parent of a compound that is named as a salt.

How the values were obtained:
[1] = solubility in aqueous medium; type: physicochemical; conditions: compared to naltrexone itself
From the text: Since only compounds containing a carbonyl moiety can react with the bisulfite anion nalmefene cannot undergo to such reaction. The bisulfite adduct of naltrexone is more soluble than naltrexone itself thus permitting the removal of this impurity.

[2] = crystalline form; improves API stability under storage and formulation conditions; cited from earlier work
[3] = hydrochloride salt, doses of 10 to 40 mg taken when the patient experiences a craving for alcohol; cited from earlier work
[4] = compared to naltrexone; cited from earlier work
[5] = compared to naltrexone; cited from earlier work; remark: listed apart in the source
[6] = compared to naltrexone; cited from earlier work; remark: listed apart in the source

**Q.** For `O=S(=O)(O)C1(O)CC[C@@]2(O)[C@H]3Cc4ccc(O)c5c4[C@@]2(CCN3CC2CC2)[C@H]1O5` (stereo partly drawn) [bisulfite adduct of naltrexone], which solubility [1] is on record?
**A.** more soluble

**Q.** Which hygroscopic properties [2] does the source give for `C=C1CC[C@@]2(O)[C@H]3Cc4ccc(O)c5c4[C@@]2(CCN3CC2CC2)[C@H]1O5` [nalmefene hydrochloride dihydrate] here?
**A.** non-hygroscopic

**Q.** With `C=C1CC[C@@]2(O)[C@H]3Cc4ccc(O)c5c4[C@@]2(CCN3CC2CC2)[C@H]1O5` [nalmefene, 17-(cyclopropylmethyl)-4,5-alpha-epoxy-6-methylenemorphinan-3,14-diol hydrochloride] as the molecule, how does the “effect in the management of alcohol dependency” value [3] read?
**A.** good effect

**Q.** What about the oral bioavailability [4] of the same molecule?
**A.** higher

**Q.** What about the dose-dependent liver toxicity [5] of the same molecule?
**A.** absence

**Q.** What about the half-life [6] of the same molecule?
**A.** longer
